Assay results reported in ChEMBL document CHEMBL4229421 (Bioorg Med Chem Lett, 2018).

Assays:
[1] = test system: HCT-116; test: Antiproliferative activity against human HCT116 cells; type: functional, cell-based
[2] = test system: MDA-MB-231; test: Antiproliferative activity against human MDA-MB-231 cells; type: functional, cell-based
[3] = test system: MCF7; test: Antiproliferative activity against human MCF7 cells; type: functional, cell-based
[4] = test system: PC-3; test: Antiproliferative activity against human PC3 cells; type: functional, cell-based
[5] = species on record: Homo sapiens; test: Selectivity ratio of IC50 for human HDAC6 to IC50 for human HDAC1
[6] = biological target: T1, Protein deacetylase HDAC6 (Homo sapiens, UniProt Q9UBN7); test: Inhibition of human HDAC6 using p53 (379 to 382 residues) derived fluorogenic peptide RHKKAc as substrate
T1 sequence (Q9UBN7 whole entry): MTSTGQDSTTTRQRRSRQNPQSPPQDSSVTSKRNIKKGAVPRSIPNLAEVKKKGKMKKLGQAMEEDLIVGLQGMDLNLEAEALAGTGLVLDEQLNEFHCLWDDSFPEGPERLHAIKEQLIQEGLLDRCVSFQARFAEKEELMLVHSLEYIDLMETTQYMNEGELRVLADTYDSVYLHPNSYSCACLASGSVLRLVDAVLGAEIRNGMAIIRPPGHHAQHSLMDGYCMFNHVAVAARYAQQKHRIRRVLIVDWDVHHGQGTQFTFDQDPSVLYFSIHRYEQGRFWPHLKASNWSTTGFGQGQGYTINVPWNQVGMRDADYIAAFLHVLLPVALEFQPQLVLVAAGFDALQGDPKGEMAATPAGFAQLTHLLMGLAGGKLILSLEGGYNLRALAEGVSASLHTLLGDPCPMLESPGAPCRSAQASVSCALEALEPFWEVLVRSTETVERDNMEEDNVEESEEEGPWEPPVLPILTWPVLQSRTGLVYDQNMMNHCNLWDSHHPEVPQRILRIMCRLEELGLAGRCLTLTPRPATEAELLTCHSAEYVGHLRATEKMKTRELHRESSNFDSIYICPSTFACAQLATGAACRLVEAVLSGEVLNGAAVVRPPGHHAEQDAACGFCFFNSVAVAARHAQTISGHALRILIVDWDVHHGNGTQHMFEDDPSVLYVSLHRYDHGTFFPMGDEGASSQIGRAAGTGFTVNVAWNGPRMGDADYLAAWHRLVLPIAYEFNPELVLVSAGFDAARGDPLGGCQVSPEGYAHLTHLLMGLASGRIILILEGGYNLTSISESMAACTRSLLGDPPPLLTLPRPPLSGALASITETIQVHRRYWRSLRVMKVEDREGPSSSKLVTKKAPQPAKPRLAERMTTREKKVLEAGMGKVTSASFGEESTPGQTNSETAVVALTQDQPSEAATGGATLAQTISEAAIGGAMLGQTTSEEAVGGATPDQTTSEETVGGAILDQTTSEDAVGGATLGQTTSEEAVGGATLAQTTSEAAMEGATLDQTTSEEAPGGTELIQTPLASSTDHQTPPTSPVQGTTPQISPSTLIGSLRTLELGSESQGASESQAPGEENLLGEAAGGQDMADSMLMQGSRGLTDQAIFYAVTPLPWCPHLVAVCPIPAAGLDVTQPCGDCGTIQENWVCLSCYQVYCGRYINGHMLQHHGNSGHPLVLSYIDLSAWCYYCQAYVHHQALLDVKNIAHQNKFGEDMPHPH

[7] = biological target: Histone deacetylase 1 (Homo sapiens, UniProt Q13547); test: Inhibition of human HDAC1 using p53 (379 to 382 residues) derived fluorogenic peptide RHKKAc as substrate
[8] = biological target: Tyrosine-protein kinase JAK2 (Homo sapiens, UniProt O60674); test: Inhibition of human JAK2 using poly[Glu:Tyr] (4:1) as substrate in presence of [gamma-33P]ATP
Tyrosine-protein kinase JAK2, sequence (O60674 whole entry): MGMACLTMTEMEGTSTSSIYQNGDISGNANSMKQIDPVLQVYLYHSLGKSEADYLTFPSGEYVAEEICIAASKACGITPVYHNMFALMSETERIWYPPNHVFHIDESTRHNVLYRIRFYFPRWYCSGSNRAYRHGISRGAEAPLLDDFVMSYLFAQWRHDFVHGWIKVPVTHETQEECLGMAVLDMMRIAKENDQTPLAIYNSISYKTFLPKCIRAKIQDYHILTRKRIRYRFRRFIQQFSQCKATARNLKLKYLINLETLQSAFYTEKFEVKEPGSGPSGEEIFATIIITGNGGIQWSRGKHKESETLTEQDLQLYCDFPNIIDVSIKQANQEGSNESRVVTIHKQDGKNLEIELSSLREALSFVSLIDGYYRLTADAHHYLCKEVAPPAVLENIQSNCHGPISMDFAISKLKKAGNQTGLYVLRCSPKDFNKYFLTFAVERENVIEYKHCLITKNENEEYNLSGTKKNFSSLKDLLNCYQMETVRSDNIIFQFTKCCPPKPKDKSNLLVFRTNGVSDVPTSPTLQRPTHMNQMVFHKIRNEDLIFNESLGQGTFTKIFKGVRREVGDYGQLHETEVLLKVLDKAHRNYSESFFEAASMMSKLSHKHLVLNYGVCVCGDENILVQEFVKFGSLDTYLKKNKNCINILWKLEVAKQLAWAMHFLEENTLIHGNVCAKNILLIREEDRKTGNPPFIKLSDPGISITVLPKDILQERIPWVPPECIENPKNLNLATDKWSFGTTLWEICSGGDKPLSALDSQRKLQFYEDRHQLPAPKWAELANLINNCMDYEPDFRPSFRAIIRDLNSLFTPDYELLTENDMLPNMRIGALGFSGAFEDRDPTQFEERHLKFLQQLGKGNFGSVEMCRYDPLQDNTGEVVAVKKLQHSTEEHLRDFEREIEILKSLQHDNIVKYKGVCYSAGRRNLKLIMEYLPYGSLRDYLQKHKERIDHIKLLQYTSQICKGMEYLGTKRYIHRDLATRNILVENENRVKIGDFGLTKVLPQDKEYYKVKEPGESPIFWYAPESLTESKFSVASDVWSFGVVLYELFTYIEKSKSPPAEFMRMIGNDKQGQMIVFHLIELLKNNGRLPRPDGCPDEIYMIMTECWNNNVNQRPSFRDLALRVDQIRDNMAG

Histone deacetylase 1, sequence (Q13547 whole entry, the tested form may be a part): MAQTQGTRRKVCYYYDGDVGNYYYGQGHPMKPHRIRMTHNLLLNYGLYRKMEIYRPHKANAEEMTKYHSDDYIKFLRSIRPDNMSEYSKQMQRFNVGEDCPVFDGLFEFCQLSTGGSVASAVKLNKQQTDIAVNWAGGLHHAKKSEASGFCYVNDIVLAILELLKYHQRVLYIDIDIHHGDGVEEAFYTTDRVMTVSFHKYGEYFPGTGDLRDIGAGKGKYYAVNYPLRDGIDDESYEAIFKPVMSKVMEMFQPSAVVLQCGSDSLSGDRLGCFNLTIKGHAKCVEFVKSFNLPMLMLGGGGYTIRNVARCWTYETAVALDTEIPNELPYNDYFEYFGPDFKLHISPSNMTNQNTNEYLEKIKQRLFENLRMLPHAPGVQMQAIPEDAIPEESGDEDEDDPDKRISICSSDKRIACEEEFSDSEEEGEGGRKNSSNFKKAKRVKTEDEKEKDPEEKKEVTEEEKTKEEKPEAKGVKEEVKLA

Row | Structure (SMILES) | IC50 [1] | IC50 [2] | IC50 [3] | IC50 [4] | Ratio IC50 [5] | IC50 [6] | IC50 [7] | IC50 [8]
1 | O=C(CCCCCCOc1ccc2cc1COC/C=C/COCc1cccc(c1)-c1ccnc(n1)N2)NO | > 10 µM | > 10 µM | > 10 µM | > 10 µM |  |  |  | 
2 | C=CCCn1cc(-c2nc(Nc3ccc(NC(=O)CCCCCCC(=O)NO)cc3)nc3[nH]ccc23)cn1 | 4.1 µM | 7.4 µM | 4.5 µM | 7.7 µM | > 300 | 0.25 nM | 83 nM | 0.041 nM
3 | N#CC[C@H](C1CCCC1)n1cc(-c2ncnc3[nH]ccc23)cn1 [RUXOLITINIB] | > 10 µM |  |  |  |  |  |  | 
4 | CCCn1cc(-c2nc(Nc3ccc(NC(=O)CCCCCCC(=O)NO)cc3)nc3[nH]ccc23)cn1 | 6.5 µM | 9.1 µM | 8.2 µM | 13.4 µM |  | 1.6 nM | 44 nM | 0.15 nM
5 | O=C(CCCCCCC(=O)Nc1ccc(Nc2nc(-c3cnn(CCCCCOc4ccccc4)c3)c3cc[nH]c3n2)cc1)NO |  |  |  |  |  | 5.2 nM | 1320 nM | 21 nM
6 | O=C(CCCCCCC(=O)Nc1ccc(Nc2nc(-c3cnn(CCCCCCOc4ccccc4)c3)c3cc[nH]c3n2)cc1)NO |  |  |  |  |  | 15.8 nM | 2000 nM | 19 nM
7 | N#CCCn1cc(-c2nc(Nc3ccc(NC(=O)CCCCCCC(=O)NO)cc3)nc3[nH]ccc23)cn1 |  |  |  |  |  | 0.85 nM | 45 nM | 
8 | O=C(CCCCCCC(=O)Nc1ccc(Nc2nc(-c3cn[nH]c3)c3cc[nH]c3n2)cc1)NO | 14.4 µM | 11.8 µM | 15.6 µM | 20.1 µM |  | 0.2 nM | 2 nM | 0.96 nM
9 | O=C(CCCCCCC(=O)Nc1ccc(Nc2nc(-c3cnn(CC4CCCC4)c3)c3cc[nH]c3n2)cc1)NO |  |  |  |  | 300 | 9.6 nM | 2710 nM | 3 nM
10 | COCCn1cc(-c2nc(Nc3ccc(NC(=O)CCCCCCC(=O)NO)cc3)nc3[nH]ccc23)cn1 | 9.4 µM | 13.3 µM | 12.2 µM | 35 µM |  | 2.1 nM | 63 nM | 2.3 nM
11 | CS(=O)(=O)CCn1cc(-c2nc(Nc3ccc(NC(=O)CCCCCCC(=O)NO)cc3)nc3[nH]ccc23)cn1 | > 100 µM | > 100 µM | > 100 µM | > 100 µM |  | 2.3 nM | 101 nM | 7.7 nM
12 | O=C(CCCCCCC(=O)Nc1ccc(Nc2nc(-c3cnn(CCCCOc4ccccc4)c3)c3cc[nH]c3n2)cc1)NO |  |  |  |  |  | 7 nM | 1720 nM | 40 nM
